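Each compound was tested at five concentrations against cells in 96-well plates for 48 hours. TGI marks complete inhibition of growth.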
System: HCT-116 colon
Test: NCI tumour cell line growth inhibition, 48 h

| SMILES | TGI |
| --- | --- |
| COc1cc(OCc2nc3ccccc3n3cccc23)cc(OC)c1OC | > 60.5 µM |
| CC(=O)C(I(OS(=O)(=O)c1ccc(C)cc1)c1ccccc1)=P(c1ccccc1)(c1ccccc1)c1ccccc1 | 50.2 µM |
| ClC1(Cl)C(c2ccccc2)C1c1ccccc1 (configuration not stated) | > 100 µM |
| CN1C2CCC1CC(CCOC(c1ccc(F)cc1)c1ccc(F)cc1)C2 (configuration not stated) | 27.4 µM |
| O=C(c1cc(Cl)cc(Cl)c1)N(C(=O)N1CCN(c2ccccc2)CC1)c1ccccc1 | > 100 µM |
| CCN(CC)C1Oc2cc3c(cc2C(c2ccc(OC)cc2)C1C)OCO3 (configuration not stated) | 29.2 µM |

System: SW-620 colon
Test: NCI tumour cell line growth inhibition, 48 h

| SMILES | TGI |
| --- | --- |
| CC1(C)CN=C(c2ccc3c(c2)Cc2cc(C4=NCC(C)(C)N4)ccc2-3)N1 | > 100 µM |
| COc1cc(OCc2nc3ccccc3n3cccc23)cc(OC)c1OC | > 54.5 µM |
| ClC1(Cl)C(c2ccccc2)C1c1ccccc1 (configuration not stated) | > 100 µM |
| CN1C2CCC1CC(CCOC(c1ccc(F)cc1)c1ccc(F)cc1)C2 (configuration not stated) | 41.8 µM |
| O=C(c1cc(Cl)cc(Cl)c1)N(C(=O)N1CCN(c2ccccc2)CC1)c1ccccc1 | > 100 µM |
| CCN(CC)C1Oc2cc3c(cc2C(c2ccc(OC)cc2)C1C)OCO3 (configuration not stated) | > 100 µM |

System: HS 578T breast
Test: NCI tumour cell line growth inhibition, 48 h

| SMILES | TGI |
| --- | --- |
| CC1(C)CN=C(c2ccc3c(c2)Cc2cc(C4=NCC(C)(C)N4)ccc2-3)N1 | > 100 µM |
| COc1cc(OCc2nc3ccccc3n3cccc23)cc(OC)c1OC | > 100 µM |
| CC(=O)C(I(OS(=O)(=O)c1ccc(C)cc1)c1ccccc1)=P(c1ccccc1)(c1ccccc1)c1ccccc1 | 68.8 µM |
| ClC1(Cl)C(c2ccccc2)C1c1ccccc1 (configuration not stated) | > 100 µM |
| CN1C2CCC1CC(CCOC(c1ccc(F)cc1)c1ccc(F)cc1)C2 (configuration not stated) | 44.5 µM |
| O=C(c1cc(Cl)cc(Cl)c1)N(C(=O)N1CCN(c2ccccc2)CC1)c1ccccc1 | > 100 µM |
| CCN(CC)C1Oc2cc3c(cc2C(c2ccc(OC)cc2)C1C)OCO3 (configuration not stated) | 48.2 µM |

System: TK-10 renal
Test: NCI tumour cell line growth inhibition, 48 h

| SMILES | TGI |
| --- | --- |
| CC1(C)CN=C(c2ccc3c(c2)Cc2cc(C4=NCC(C)(C)N4)ccc2-3)N1 | > 100 µM |
| COc1cc(OCc2nc3ccccc3n3cccc23)cc(OC)c1OC | > 88.6 µM |
| CC(=O)C(I(OS(=O)(=O)c1ccc(C)cc1)c1ccccc1)=P(c1ccccc1)(c1ccccc1)c1ccccc1 | > 100 µM |
| ClC1(Cl)C(c2ccccc2)C1c1ccccc1 (configuration not stated) | > 100 µM |
| CN1C2CCC1CC(CCOC(c1ccc(F)cc1)c1ccc(F)cc1)C2 (configuration not stated) | 28.8 µM |
| O=C(c1cc(Cl)cc(Cl)c1)N(C(=O)N1CCN(c2ccccc2)CC1)c1ccccc1 | > 100 µM |
| CCN(CC)C1Oc2cc3c(cc2C(c2ccc(OC)cc2)C1C)OCO3 (configuration not stated) | 56.2 µM |

System: OVCAR-4 ovarian
Test: NCI tumour cell line growth inhibition, 48 h

| SMILES | TGI |
| --- | --- |
| CC1(C)CN=C(c2ccc3c(c2)Cc2cc(C4=NCC(C)(C)N4)ccc2-3)N1 | > 100 µM |
| COc1cc(OCc2nc3ccccc3n3cccc23)cc(OC)c1OC | > 63 µM |
| CC(=O)C(I(OS(=O)(=O)c1ccc(C)cc1)c1ccccc1)=P(c1ccccc1)(c1ccccc1)c1ccccc1 | 37 µM |
| ClC1(Cl)C(c2ccccc2)C1c1ccccc1 (configuration not stated) | > 100 µM |
| CN1C2CCC1CC(CCOC(c1ccc(F)cc1)c1ccc(F)cc1)C2 (configuration not stated) | 38.8 µM |
| O=C(c1cc(Cl)cc(Cl)c1)N(C(=O)N1CCN(c2ccccc2)CC1)c1ccccc1 | > 100 µM |

System: UACC-257 melanoma
Test: NCI tumour cell line growth inhibition, 48 h

| SMILES | TGI |
| --- | --- |
| CC1(C)CN=C(c2ccc3c(c2)Cc2cc(C4=NCC(C)(C)N4)ccc2-3)N1 | > 100 µM |
| COc1cc(OCc2nc3ccccc3n3cccc23)cc(OC)c1OC | > 60.9 µM |
| CC(=O)C(I(OS(=O)(=O)c1ccc(C)cc1)c1ccccc1)=P(c1ccccc1)(c1ccccc1)c1ccccc1 | 59 µM |
| ClC1(Cl)C(c2ccccc2)C1c1ccccc1 (configuration not stated) | > 100 µM |
| CN1C2CCC1CC(CCOC(c1ccc(F)cc1)c1ccc(F)cc1)C2 (configuration not stated) | 34.1 µM |
| O=C(c1cc(Cl)cc(Cl)c1)N(C(=O)N1CCN(c2ccccc2)CC1)c1ccccc1 | > 100 µM |
| CCN(CC)C1Oc2cc3c(cc2C(c2ccc(OC)cc2)C1C)OCO3 (configuration not stated) | 35.1 µM |

System: RPMI-8226 leukemia
Test: NCI tumour cell line growth inhibition, 48 h

| SMILES | TGI |
| --- | --- |
| CC1(C)CN=C(c2ccc3c(c2)Cc2cc(C4=NCC(C)(C)N4)ccc2-3)N1 | 65.8 µM |
| COc1cc(OCc2nc3ccccc3n3cccc23)cc(OC)c1OC | 14.6 µM |
| CC(=O)C(I(OS(=O)(=O)c1ccc(C)cc1)c1ccccc1)=P(c1ccccc1)(c1ccccc1)c1ccccc1 | 61.1 µM |
| ClC1(Cl)C(c2ccccc2)C1c1ccccc1 (configuration not stated) | 79.8 µM |
| CN1C2CCC1CC(CCOC(c1ccc(F)cc1)c1ccc(F)cc1)C2 (configuration not stated) | 44.4 µM |
| CCN(CC)C1Oc2cc3c(cc2C(c2ccc(OC)cc2)C1C)OCO3 (configuration not stated) | 38 µM |

System: CAKI-1 renal
Test: NCI tumour cell line growth inhibition, 48 h

| SMILES | TGI |
| --- | --- |
| CC1(C)CN=C(c2ccc3c(c2)Cc2cc(C4=NCC(C)(C)N4)ccc2-3)N1 | > 100 µM |
| COc1cc(OCc2nc3ccccc3n3cccc23)cc(OC)c1OC | > 100 µM |
| CC(=O)C(I(OS(=O)(=O)c1ccc(C)cc1)c1ccccc1)=P(c1ccccc1)(c1ccccc1)c1ccccc1 | > 100 µM |
| ClC1(Cl)C(c2ccccc2)C1c1ccccc1 (configuration not stated) | 75.9 µM |
| CN1C2CCC1CC(CCOC(c1ccc(F)cc1)c1ccc(F)cc1)C2 (configuration not stated) | 32.6 µM |
| O=C(c1cc(Cl)cc(Cl)c1)N(C(=O)N1CCN(c2ccccc2)CC1)c1ccccc1 | > 100 µM |
| CCN(CC)C1Oc2cc3c(cc2C(c2ccc(OC)cc2)C1C)OCO3 (configuration not stated) | 76.4 µM |

System: SK-MEL-28 melanoma
Test: NCI tumour cell line growth inhibition, 48 h

| SMILES | TGI |
| --- | --- |
| CC1(C)CN=C(c2ccc3c(c2)Cc2cc(C4=NCC(C)(C)N4)ccc2-3)N1 | > 100 µM |
| COc1cc(OCc2nc3ccccc3n3cccc23)cc(OC)c1OC | > 90.5 µM |
| CC(=O)C(I(OS(=O)(=O)c1ccc(C)cc1)c1ccccc1)=P(c1ccccc1)(c1ccccc1)c1ccccc1 | 36.4 µM |
| ClC1(Cl)C(c2ccccc2)C1c1ccccc1 (configuration not stated) | > 100 µM |
| CN1C2CCC1CC(CCOC(c1ccc(F)cc1)c1ccc(F)cc1)C2 (configuration not stated) | 31.7 µM |
| O=C(c1cc(Cl)cc(Cl)c1)N(C(=O)N1CCN(c2ccccc2)CC1)c1ccccc1 | > 100 µM |
| CCN(CC)C1Oc2cc3c(cc2C(c2ccc(OC)cc2)C1C)OCO3 (configuration not stated) | 50.8 µM |

System: KM12 colon
Test: NCI tumour cell line growth inhibition, 48 h

| SMILES | TGI |
| --- | --- |
| CC1(C)CN=C(c2ccc3c(c2)Cc2cc(C4=NCC(C)(C)N4)ccc2-3)N1 | > 100 µM |
| COc1cc(OCc2nc3ccccc3n3cccc23)cc(OC)c1OC | > 50.6 µM |
| CC(=O)C(I(OS(=O)(=O)c1ccc(C)cc1)c1ccccc1)=P(c1ccccc1)(c1ccccc1)c1ccccc1 | 38.2 µM |
| ClC1(Cl)C(c2ccccc2)C1c1ccccc1 (configuration not stated) | > 100 µM |
| CN1C2CCC1CC(CCOC(c1ccc(F)cc1)c1ccc(F)cc1)C2 (configuration not stated) | 30.8 µM |
| O=C(c1cc(Cl)cc(Cl)c1)N(C(=O)N1CCN(c2ccccc2)CC1)c1ccccc1 | > 100 µM |
| CCN(CC)C1Oc2cc3c(cc2C(c2ccc(OC)cc2)C1C)OCO3 (configuration not stated) | 53.2 µM |

System: HOP-62 NSCLC
Test: NCI tumour cell line growth inhibition, 48 h

| SMILES | TGI |
| --- | --- |
| CC1(C)CN=C(c2ccc3c(c2)Cc2cc(C4=NCC(C)(C)N4)ccc2-3)N1 | > 100 µM |
| COc1cc(OCc2nc3ccccc3n3cccc23)cc(OC)c1OC | > 100 µM |
| CC(=O)C(I(OS(=O)(=O)c1ccc(C)cc1)c1ccccc1)=P(c1ccccc1)(c1ccccc1)c1ccccc1 | 59.6 µM |
| ClC1(Cl)C(c2ccccc2)C1c1ccccc1 (configuration not stated) | > 100 µM |
| CN1C2CCC1CC(CCOC(c1ccc(F)cc1)c1ccc(F)cc1)C2 (configuration not stated) | 30.9 µM |
| O=C(c1cc(Cl)cc(Cl)c1)N(C(=O)N1CCN(c2ccccc2)CC1)c1ccccc1 | > 100 µM |
| CCN(CC)C1Oc2cc3c(cc2C(c2ccc(OC)cc2)C1C)OCO3 (configuration not stated) | 54.9 µM |

System: NCI-H522 lung
Test: NCI tumour cell line growth inhibition, 48 h

| SMILES | TGI |
| --- | --- |
| CC1(C)CN=C(c2ccc3c(c2)Cc2cc(C4=NCC(C)(C)N4)ccc2-3)N1 | 83.6 µM |
| COc1cc(OCc2nc3ccccc3n3cccc23)cc(OC)c1OC | > 65.9 µM |
| CC(=O)C(I(OS(=O)(=O)c1ccc(C)cc1)c1ccccc1)=P(c1ccccc1)(c1ccccc1)c1ccccc1 | 24.5 µM |
| CN1C2CCC1CC(CCOC(c1ccc(F)cc1)c1ccc(F)cc1)C2 (configuration not stated) | 31.9 µM |
| O=C(c1cc(Cl)cc(Cl)c1)N(C(=O)N1CCN(c2ccccc2)CC1)c1ccccc1 | > 100 µM |
| CCN(CC)C1Oc2cc3c(cc2C(c2ccc(OC)cc2)C1C)OCO3 (configuration not stated) | 35.8 µM |

System: COLO 205 colon
Test: NCI tumour cell line growth inhibition, 48 h

| SMILES | TGI |
| --- | --- |
| CC1(C)CN=C(c2ccc3c(c2)Cc2cc(C4=NCC(C)(C)N4)ccc2-3)N1 | > 100 µM |
| COc1cc(OCc2nc3ccccc3n3cccc23)cc(OC)c1OC | > 82.3 µM |
| CC(=O)C(I(OS(=O)(=O)c1ccc(C)cc1)c1ccccc1)=P(c1ccccc1)(c1ccccc1)c1ccccc1 | 31.4 µM |
| ClC1(Cl)C(c2ccccc2)C1c1ccccc1 (configuration not stated) | > 100 µM |
| CN1C2CCC1CC(CCOC(c1ccc(F)cc1)c1ccc(F)cc1)C2 (configuration not stated) | 24.1 µM |
| O=C(c1cc(Cl)cc(Cl)c1)N(C(=O)N1CCN(c2ccccc2)CC1)c1ccccc1 | 39.6 µM |
| CCN(CC)C1Oc2cc3c(cc2C(c2ccc(OC)cc2)C1C)OCO3 (configuration not stated) | 34.5 µM |

System: HL-60(TB) leukemia
Test: NCI tumour cell line growth inhibition, 48 h

| SMILES | TGI |
| --- | --- |
| COc1cc(OCc2nc3ccccc3n3cccc23)cc(OC)c1OC | 48.2 µM |
| CC(=O)C(I(OS(=O)(=O)c1ccc(C)cc1)c1ccccc1)=P(c1ccccc1)(c1ccccc1)c1ccccc1 | 76.3 µM |
| CN1C2CCC1CC(CCOC(c1ccc(F)cc1)c1ccc(F)cc1)C2 (configuration not stated) | 34.9 µM |
| O=C(c1cc(Cl)cc(Cl)c1)N(C(=O)N1CCN(c2ccccc2)CC1)c1ccccc1 | > 100 µM |

System: SF-295 CNS
Test: NCI tumour cell line growth inhibition, 48 h

| SMILES | TGI |
| --- | --- |
| CC1(C)CN=C(c2ccc3c(c2)Cc2cc(C4=NCC(C)(C)N4)ccc2-3)N1 | > 100 µM |
| COc1cc(OCc2nc3ccccc3n3cccc23)cc(OC)c1OC | > 100 µM |
| CC(=O)C(I(OS(=O)(=O)c1ccc(C)cc1)c1ccccc1)=P(c1ccccc1)(c1ccccc1)c1ccccc1 | > 100 µM |
| ClC1(Cl)C(c2ccccc2)C1c1ccccc1 (configuration not stated) | 82.3 µM |
| CN1C2CCC1CC(CCOC(c1ccc(F)cc1)c1ccc(F)cc1)C2 (configuration not stated) | 30.8 µM |
| O=C(c1cc(Cl)cc(Cl)c1)N(C(=O)N1CCN(c2ccccc2)CC1)c1ccccc1 | > 100 µM |
| CCN(CC)C1Oc2cc3c(cc2C(c2ccc(OC)cc2)C1C)OCO3 (configuration not stated) | 63.1 µM |

— PubChem BioAssay (NCI)
